Legend:
[1] = test system: ApoE−/− mouse model of arterial vulnerable plaque; assay: In vivo therapeutic effect of atorvastatin delivery systems on arterial vulnerable plaques (Experimental Example 4, carotid MRI); set-up: species or system mice; settings: once every other day, 5 treatments, control progressed by 34.87%
Method: (§1) Except for the control group of vulnerable plaque model, the treatment group was treated once every other day for a total of 5 treatments. For animals in each group, carotid MRI scans were performed before and after treatment to detect plaque and lumen area, and the percentage of plaque progression was calculated. Percentage of plaque progression=(plaque area after treatment−plaque area before treatment)/lumen area.

[2] = test system: ApoE−/− mouse model of arterial vulnerable plaque; assay: In vivo radioisotopic tracing of vulnerable plaque (Experimental Example 8); set-up: species or system mice; settings: tail vein, tracer 2 mSv/kg, imaging 2 hours after administration
Method: (§2) • (1) A normal saline solution of free rosuvastatin was prepared, and the liposome nano delivery systems loaded with radioisotopic tracer and therapeutic agent was prepared by the method described in the above Example 11. • (2) Establishment of ApoE−/− mouse model of arterial vulnerable plaque according to Experimental Example 4. • (3) Trace of vulnerable plaque in experimental animals:
The experimental animals were randomly divided into the following groups, 6 mice in each group: • Free F-FDG group: the dosage of F-FDG was 2 mSv/kg body weight; • LP1-(F-FDG)-OPN group: the dosage of F-FDG was 2 mSv/kg body weight; • LP1-(99mTc)-OPN group: the dosage of 99mTc was 2 mSv/kg body weight; • LP1-(I-131)-OPN group: the dosage of 1-131 was 2 mSv/kg body weight.
Animals in each experimental group were injected with the corresponding tracer through the tail vein, and radioisotopic imaging was performed before administration and 2 hours after administration to observe the identification of atherosclerotic vulnerable plaque in each group.

[3] = test system: ApoE−/− mouse model of arterial vulnerable plaque; assay: In vivo therapeutic effect of LP2-(AuNP/R)-OPN on arterial vulnerable plaques (Experimental Example 5, carotid MRI); set-up: species or system mice; settings: once every other day, 5 treatments, control progressed by 31.23%
Method: as §2, with “CT” for “radioisotopic”, “7.” for “11.”
as §1

[4] = oral, clinical practice; cited from earlier work
[5] = test system: ApoE−/− mouse model of arterial vulnerable plaque; assay: In vivo therapeutic effect of rosuvastatin delivery systems on arterial vulnerable plaques (Experimental Example 3, carotid MRI); set-up: species or system mice; settings: once every other day, 5 treatments, control progressed by 36.23%
Method: • (1) A normal saline solution of free rosuvastatin was prepared, and the liposome nanocarrier delivery systems loaded with therapeutic agent were prepared by the method described in the above Example 1-3. • (2) Establishment of ApoE−/− mouse model of arterial vulnerable plaque:
SPF-grade ApoE−/− mice (42 mice, 5-6 weeks old, weight 20±1 g) were taken as experimental animals. The mice were fed with an adaptive high-fat diet (fat 10% (w/w), cholesterol 2% (w/w), sodium cholate 0.5% (w/w), and the rest being normal feed for mice) for 4 weeks, and then anaesthetized via intraperitoneal injection of 1% sodium pentobarbital (prepared by adding […] of sodium pentobarbital to 100 ml of normal saline) at a dose of 40 mg/kg. Then, the mice were fixed on the surgical plate in the supine position, disinfected around the neck with 75% (v/v) alcohol, the neck skin was cut longitudinally, and the anterior cervical gland was bluntly separated, and the beating left common carotid artery can be observed on the left side of the trachea. […]
as §1, with “Percentage of plaque progression=(plaque area after treatment−plaque area before treatment)/lumen area.” left out

[6] = biological target: T1, CD44 on the surface of endothelial cells at arterial vulnerable plaques (Mus musculus, UniProt P15379); assay: Binding force integration of amino fluorescein labelled ligand/antibody, flow cytometry MFI, endothelial cells; set-up: species or system mice; settings: normal cells set to 1; labelled ligand/antibody 10 mg/ml, 30 minutes, 37° C.
T1 construct: from tissue; host or cells: endothelial cells from arterial vulnerable plaques of model mice
T1 sequence (P15379 23-778): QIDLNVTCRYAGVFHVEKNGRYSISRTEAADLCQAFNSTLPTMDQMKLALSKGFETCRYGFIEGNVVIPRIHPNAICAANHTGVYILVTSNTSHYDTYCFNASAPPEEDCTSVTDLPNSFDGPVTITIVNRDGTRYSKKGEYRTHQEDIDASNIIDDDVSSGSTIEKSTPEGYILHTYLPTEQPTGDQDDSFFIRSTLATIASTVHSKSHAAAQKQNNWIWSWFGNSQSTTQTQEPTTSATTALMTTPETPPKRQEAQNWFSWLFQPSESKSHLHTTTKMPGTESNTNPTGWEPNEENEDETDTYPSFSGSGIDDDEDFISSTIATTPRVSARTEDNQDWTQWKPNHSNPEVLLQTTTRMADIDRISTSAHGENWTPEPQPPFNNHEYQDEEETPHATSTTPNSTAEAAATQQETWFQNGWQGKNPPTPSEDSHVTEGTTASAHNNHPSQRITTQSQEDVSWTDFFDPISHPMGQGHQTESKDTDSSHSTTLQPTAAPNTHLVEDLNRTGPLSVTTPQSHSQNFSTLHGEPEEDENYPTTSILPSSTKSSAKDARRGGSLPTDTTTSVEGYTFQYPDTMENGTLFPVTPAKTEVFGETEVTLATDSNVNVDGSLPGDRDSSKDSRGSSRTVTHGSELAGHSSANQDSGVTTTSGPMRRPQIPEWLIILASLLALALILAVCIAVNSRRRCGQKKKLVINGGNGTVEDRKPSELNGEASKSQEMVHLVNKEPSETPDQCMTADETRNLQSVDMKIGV
Method: Endothelial cells at normal arterial vessel walls and endothelial cells at arterial vulnerable plaques of model mice were taken, and the ligand/antibody labeled with amino fluorescein at a concentration of 10 mg/ml was added, the sample was cultured in Dulberic modified Eagle's medium (DMEM) (containing calf serum with a volume fraction of 10%, 100 U/ml penicillin, 100 U/ml streptomycin) at 37° C., in 5% CO2 incubator. After 30 minutes, the mean fluorescence intensity (MFI) was determined by flow cytometry (CytoFLEX, Beckman Coulter, U.S.A.), and the binding force integration of FL-ligand/antibody on the surface of both cells was calculated (the binding force of CD44 of endothelial cells of normal arterial vessel walls to ligand/antibody is set to 1).

[7] = biological target: T2, CD44 on the surface of macrophages inside arterial vulnerable plaques (Mus musculus, UniProt P15379); assay: Binding force integration of amino fluorescein labelled ligand/antibody, flow cytometry MFI, macrophages; set-up: species or system mice; settings: macrophages outside the plaque set to 1; labelled ligand/antibody 10 mg/ml, 30 minutes, 37° C.
T2 construct: from tissue; host or cells: macrophages from inside arterial vulnerable plaques of model mice
T2 sequence (P15379 23-778): T1 sequence (P15379 23-778)
Method: Intraperitoneal macrophages and macrophages inside arterial vulnerable plaques of model mice were taken, and the ligand/antibody labeled with amino fluorescein at a concentration of 10 mg/ml was added, the sample was cultured in DMEM (containing calf serum with a volume fraction of 10%, 100 U/ml penicillin, 100 U/ml streptomycin) at 37° C., in 5% CO2 incubator.

[8] = intragastric, 10 mg rosuvastatin per kg

| Molecule | binding force integration of CD44 on the surface of endothelial cells at vulnerable plaques, relative to endothelial cells of normal arterial vessel walls [6] | binding force integration of CD44 on the surface of macrophages at vulnerable plaques, relative to macrophages outside the plaque [7] | also measured |
| --- | --- | --- | --- |
| CC(C)c1c(C(=O)Nc2ccccc2)c(-c2ccccc2)c(-c2ccc(F)cc2)n1CC[C@@H](O)C[C@@H](O)CC(=O)O [atorvastatin] | – | – | percentage of plaque progression ([1]; intragastric, 20 mg atorvastatin per kg): 33.21%; percentage of plaque progression ([1]; intravenous, 1.2 mg atorvastatin per kg): 32.98% |
| OC[C@H]1OC(O)[C@H]([18F])[C@@H](O)[C@@H]1O (stereo partly drawn) [free F-FDG, fluorine 18 (18F)-labeled fludeoxyglucose] | – | – | in vivo tracing effect on arterial vulnerable plaques (radioisotopic imaging) [2]: doesn't show any tracing effect |
| CC(C)c1nc(N(C)S(C)(=O)=O)nc(-c2ccc(F)cc2)c1/C=C/[C@@H](O)C[C@@H](O)CC(=O)O [rosuvastatin] | – | – | percentage of plaque progression [3, 8]: 30.9%; percentage of plaque progression ([3]; intravenous, 0.67 mg rosuvastatin per kg): 25.34%; bioavailability when administered orally [4]: about 20%; percentage of plaque progression [5, 8]: 33.9%; percentage of plaque progression ([5]; intravenous, 0.66 mg rosuvastatin per kg): 32.46% |
| collagen | 21 times | 38 times | – |
| fibronectin | 18 times | 35 times | – |
| hyaluronic acid [HA] | approximately 24 times | approximately 40 times | – |
| laminin | 16 times | 37 times | – |
| osteopontin: natural ligand for CD44 | 17 times | 33 times | – |
